{
  "source": "patent US8192962B2",
  "about": "“Processes for detecting toxic substances” (Daikin Industries, Ltd., priority 2001, dated 2012)",
  "tested_on": "Unknown protein yeast genes",
  "experiment": "DNA chip mRNA expression in yeast, unknown protein yeast genes (Table 1)",
  "assay_type": "cell-based, Saccharomyces cerevisiae S288C",
  "method_in_brief": "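Expression change after 2 h toxicant exposure (growth-inhibiting, sub-lethal) of log-phase S. cerevisiae S288C at 25° C. Oligo-dT-purified mRNA was labeled with Cy3-dUTP or Cy5-dUTP and hybridized >12 h at 65° C. to a genome-wide chip; ratio of scanned fluorescence to control.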",
  "data": [
    {"compound": "CCCCC[C@H](O)CC(=O)CCc1ccc(O)c(OC)c1", "note": "[(13), gingerol]", "values": [
      {"measurement": "The level of expressed mRNA in the presence of chemical substance/The level of expressed mRNA in the absence of chemical substance", "setting": "yeast gene YAL018C", "result": 1.3},
      {"measurement": "The level of expressed mRNA in the presence of chemical substance/The level of expressed mRNA in the absence of chemical substance", "setting": "yeast gene YAL049C, incubated two hours with substance", "result": 1.6},
      {"measurement": "The level of expressed mRNA in the presence of chemical substance/The level of expressed mRNA in the absence of chemical substance", "setting": "yeast gene YAR031W", "result": 3.3},
      {"measurement": "The level of expressed mRNA in the presence of chemical substance/The level of expressed mRNA in the absence of chemical substance", "setting": "yeast gene YAR047C", "result": 1.4},
      {"measurement": "The level of expressed mRNA in the presence of chemical substance/The level of expressed mRNA in the absence of chemical substance", "setting": "yeast gene YAR064W", "result": 1.1},
      {"measurement": "The level of expressed mRNA in the presence of chemical substance/The level of expressed mRNA in the absence of chemical substance", "setting": "yeast gene YBL048W", "result": 2.7},
      {"measurement": "The level of expressed mRNA in the presence of chemical substance/The level of expressed mRNA in the absence of chemical substance", "setting": "yeast gene YBL049W", "result": 3.9},
      {"measurement": "The level of expressed mRNA in the presence of chemical substance/The level of expressed mRNA in the absence of chemical substance", "setting": "yeast gene YBL107C", "result": 2.6},
      {"measurement": "The level of expressed mRNA in the presence of chemical substance/The level of expressed mRNA in the absence of chemical substance", "setting": "yeast gene YBR012C", "result": 2.1},
      {"measurement": "The level of expressed mRNA in the presence of chemical substance/The level of expressed mRNA in the absence of chemical substance", "setting": "yeast gene YBR062C", "result": 2.8},
      {"measurement": "The level of expressed mRNA in the presence of chemical substance/The level of expressed mRNA in the absence of chemical substance", "setting": "yeast gene YBR124W", "result": 0.9},
      {"measurement": "The level of expressed mRNA in the presence of chemical substance/The level of expressed mRNA in the absence of chemical substance", "setting": "yeast gene YBR287W", "result": 3.4},
      {"measurement": "The level of expressed mRNA in the presence of chemical substance/The level of expressed mRNA in the absence of chemical substance", "setting": "yeast gene YCL056C", "result": 1.3},
      {"measurement": "The level of expressed mRNA in the presence of chemical substance/The level of expressed mRNA in the absence of chemical substance", "setting": "yeast gene YCR007C", "result": 1.5},
      {"measurement": "The level of expressed mRNA in the presence of chemical substance/The level of expressed mRNA in the absence of chemical substance", "setting": "yeast gene YCR013C", "result": 3.9},
      {"measurement": "The level of expressed mRNA in the presence of chemical substance/The level of expressed mRNA in the absence of chemical substance", "setting": "yeast gene YDL027C", "result": 3.2},
      {"measurement": "The level of expressed mRNA in the presence of chemical substance/The level of expressed mRNA in the absence of chemical substance", "setting": "yeast gene YDL046W", "result": 1.5},
      {"measurement": "The level of expressed mRNA in the presence of chemical substance/The level of expressed mRNA in the absence of chemical substance", "setting": "yeast gene YDL110C", "result": 2.7},
      {"measurement": "The level of expressed mRNA in the presence of chemical substance/The level of expressed mRNA in the absence of chemical substance", "setting": "yeast gene YDL169C", "result": 3.7},
      {"measurement": "The level of expressed mRNA in the presence of chemical substance/The level of expressed mRNA in the absence of chemical substance", "setting": "yeast gene YDR090C", "result": 0.8},
      {"measurement": "The level of expressed mRNA in the presence of chemical substance/The level of expressed mRNA in the absence of chemical substance", "setting": "yeast gene YDR128W", "result": 1.1},
      {"measurement": "The level of expressed mRNA in the presence of chemical substance/The level of expressed mRNA in the absence of chemical substance", "setting": "yeast gene YDR133C", "result": 0.1},
      {"measurement": "The level of expressed mRNA in the presence of chemical substance/The level of expressed mRNA in the absence of chemical substance", "setting": "yeast gene YDR210W", "result": 2.3},
      {"measurement": "The level of expressed mRNA in the presence of chemical substance/The level of expressed mRNA in the absence of chemical substance", "setting": "yeast gene YDR250C", "result": 1.2},
      {"measurement": "The level of expressed mRNA in the presence of chemical substance/The level of expressed mRNA in the absence of chemical substance", "setting": "yeast gene YDR366C", "result": 0.8},
      {"measurement": "The level of expressed mRNA in the presence of chemical substance/The level of expressed mRNA in the absence of chemical substance", "setting": "yeast gene YDR435C", "result": 2.5},
      {"measurement": "The level of expressed mRNA in the presence of chemical substance/The level of expressed mRNA in the absence of chemical substance", "setting": "yeast gene YDR476C", "result": 2.8},
      {"measurement": "The level of expressed mRNA in the presence of chemical substance/The level of expressed mRNA in the absence of chemical substance", "setting": "yeast gene YER037W", "result": 3.0},
      {"measurement": "The level of expressed mRNA in the presence of chemical substance/The level of expressed mRNA in the absence of chemical substance", "setting": "yeast gene YFL024C", "result": 0.9},
      {"measurement": "The level of expressed mRNA in the presence of chemical substance/The level of expressed mRNA in the absence of chemical substance", "setting": "yeast gene YFR003C", "result": 2.5},
      {"measurement": "The level of expressed mRNA in the presence of chemical substance/The level of expressed mRNA in the absence of chemical substance", "setting": "yeast gene YFR026C", "result": 1.1},
      {"measurement": "The level of expressed mRNA in the presence of chemical substance/The level of expressed mRNA in the absence of chemical substance", "setting": "yeast gene YGR035C", "result": 2.1},
      {"measurement": "The level of expressed mRNA in the presence of chemical substance/The level of expressed mRNA in the absence of chemical substance", "setting": "yeast gene YGR038W", "result": 1.2},
      {"measurement": "The level of expressed mRNA in the presence of chemical substance/The level of expressed mRNA in the absence of chemical substance", "setting": "yeast gene YGR110W", "result": 3.6},
      {"measurement": "The level of expressed mRNA in the presence of chemical substance/The level of expressed mRNA in the absence of chemical substance", "setting": "yeast gene YGR139W", "result": 0.4},
      {"measurement": "The level of expressed mRNA in the presence of chemical substance/The level of expressed mRNA in the absence of chemical substance", "setting": "yeast gene YGR237C, incubated two hours with substance", "result": 1.6},
      {"measurement": "The level of expressed mRNA in the presence of chemical substance/The level of expressed mRNA in the absence of chemical substance", "setting": "yeast gene YGR277C, incubated two hours with substance", "result": 1.6},
      {"measurement": "The level of expressed mRNA in the presence of chemical substance/The level of expressed mRNA in the absence of chemical substance", "setting": "yeast gene YHL006C", "result": 1.1},
      {"measurement": "The level of expressed mRNA in the presence of chemical substance/The level of expressed mRNA in the absence of chemical substance", "setting": "yeast gene YHR209W", "result": 2.0},
      {"measurement": "The level of expressed mRNA in the presence of chemical substance/The level of expressed mRNA in the absence of chemical substance", "setting": "yeast gene YIL127C", "result": 0.4},
      {"measurement": "The level of expressed mRNA in the presence of chemical substance/The level of expressed mRNA in the absence of chemical substance", "setting": "yeast gene YJL017W", "result": 1.5},
      {"measurement": "The level of expressed mRNA in the presence of chemical substance/The level of expressed mRNA in the absence of chemical substance", "setting": "yeast gene YJL037W", "result": 1.1},
      {"measurement": "The level of expressed mRNA in the presence of chemical substance/The level of expressed mRNA in the absence of chemical substance", "setting": "yeast gene YKL097C", "result": 0.9},
      {"measurement": "The level of expressed mRNA in the presence of chemical substance/The level of expressed mRNA in the absence of chemical substance", "setting": "yeast gene YKL107W", "result": 1.9},
      {"measurement": "The level of expressed mRNA in the presence of chemical substance/The level of expressed mRNA in the absence of chemical substance", "setting": "yeast gene YKR040C", "result": 0.6},
      {"measurement": "The level of expressed mRNA in the presence of chemical substance/The level of expressed mRNA in the absence of chemical substance", "setting": "yeast gene YKR075C", "result": 3.8},
      {"measurement": "The level of expressed mRNA in the presence of chemical substance/The level of expressed mRNA in the absence of chemical substance", "setting": "yeast gene YLR064W, incubated two hours with substance", "result": 1.6},
      {"measurement": "The level of expressed mRNA in the presence of chemical substance/The level of expressed mRNA in the absence of chemical substance", "setting": "yeast gene YLR297W", "result": 0.8},
      {"measurement": "The level of expressed mRNA in the presence of chemical substance/The level of expressed mRNA in the absence of chemical substance", "setting": "yeast gene YLR338W", "result": 1.2},
      {"measurement": "The level of expressed mRNA in the presence of chemical substance/The level of expressed mRNA in the absence of chemical substance", "setting": "yeast gene YLR392C", "result": 1.4}
    ]}
  ]
}
